Laboratory results as given in PubChem BioAssay (NCI).
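Method: 48-hour compound exposure of cells in 96-well plates, five concentrations, linear interpolation of endpoints. TGI denotes the concentration required for complete inhibition of growth.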

What was measured:
Experiment in all cases: NCI tumour cell line growth inhibition, 48 h
OVCAR-3 ovarian = tested on: OVCAR-3 ovarian
MDA-N = tested on: MDA-N
RPMI-8226 leukemia = tested on: RPMI-8226 leukemia
TK-10 renal = tested on: TK-10 renal
KM12 colon = tested on: KM12 colon
SK-MEL-28 melanoma = tested on: SK-MEL-28 melanoma
HCT-15 colon = tested on: HCT-15 colon
HCT-116 colon = tested on: HCT-116 colon
A549 NSCLC = tested on: A549 NSCLC
SN12C renal = tested on: SN12C renal
COLO 205 colon = tested on: COLO 205 colon
NCI-H226 lung = tested on: NCI-H226 lung
SNB-19 CNS = tested on: SNB-19 CNS
SF-268 CNS = tested on: SF-268 CNS
CCRF-CEM leukemia = tested on: CCRF-CEM leukemia
CAKI-1 renal = tested on: CAKI-1 renal
MDA-MB-231 breast = tested on: MDA-MB-231 breast
UACC-62 melanoma = tested on: UACC-62 melanoma
HT29 colon = tested on: HT29 colon
LOX IMVI melanoma = tested on: LOX IMVI melanoma
MDA-MB-435 = tested on: MDA-MB-435
HL-60(TB) leukemia = tested on: HL-60(TB) leukemia
786-0 renal = tested on: 786-0 renal
HCC-2998 colon = tested on: HCC-2998 colon
SF-295 CNS = tested on: SF-295 CNS
U251 CNS = tested on: U251 CNS
MCF7 breast = tested on: MCF7 breast
SW-620 colon = tested on: SW-620 colon
EKVX NSCLC = tested on: EKVX NSCLC
M14 melanoma = tested on: M14 melanoma
HOP-62 NSCLC = tested on: HOP-62 NSCLC
NCI-H23 lung = tested on: NCI-H23 lung
OVCAR-5 ovarian = tested on: OVCAR-5 ovarian
SK-MEL-5 melanoma = tested on: SK-MEL-5 melanoma
OVCAR-8 ovarian = tested on: OVCAR-8 ovarian
NCI-H522 lung = tested on: NCI-H522 lung
DU-145 prostate = tested on: DU-145 prostate
UO-31 renal = tested on: UO-31 renal
A498 renal = tested on: A498 renal
UACC-257 melanoma = tested on: UACC-257 melanoma
OVCAR-4 ovarian = tested on: OVCAR-4 ovarian
RXF 393 renal = tested on: RXF 393 renal
T-47D breast = tested on: T-47D breast
NCI-H460 lung = tested on: NCI-H460 lung
MOLT-4 leukemia = tested on: MOLT-4 leukemia
ACHN renal = tested on: ACHN renal
PC-3 prostate = tested on: PC-3 prostate
NCI/ADR-RES ovarian = tested on: NCI/ADR-RES ovarian
IGROV1 ovarian = tested on: IGROV1 ovarian
K-562 leukemia = tested on: K-562 leukemia
SK-MEL-2 melanoma = tested on: SK-MEL-2 melanoma
HOP-92 NSCLC = tested on: HOP-92 NSCLC
SF-539 CNS = tested on: SF-539 CNS
MALME-3M melanoma = tested on: MALME-3M melanoma
SK-OV-3 ovarian = tested on: SK-OV-3 ovarian

Measured: TGI

Cc1cn(CC2=NCC(O)CN2)c(=O)[nH]c1=O (stereo not given)
> 100 µM: all assays above
